Values of other authors as cited in patent publication US9155308B2, “Agricultural pesticide formulation” (priority 2013, dated 2015).

Settings: based on animal studies

In the case of `Cc1c(COC(=O)[C@@H]2[C@H](/C=C(\Cl)C(F)(F)F)C2(C)C)cccc1-c1ccccc1` (racemic) [bifenthrin, Bifenthrin], the “chronic reference dose (RfD)” value (daily exposure) is given as 0.013 mg/kg bodyweight/day and the “acute reference dose (RfD)” value (one-time exposure) is given as 0.328 mg/kg bodyweight/day.
